Laboratory results taken from patent publication US20110105457A1, “HETEROCYCLIC COMPOUND HAVING INHIBITORY ACTIVITY ON PI3K” (SHIONOGI & CO., LTD., priority 2008, published 2011).

Legend:
PI-3 kinase γ = PI-3 kinase γ (Homo sapiens, UniProt P48736); test: PI3Kγ inhibitory activity, PI3-kinase HTRF assay (Millipore); format: biochemical; details: 0.5 h; compound 50 μM; read-out: Inhibition ratio % (50 μM)
Experimental: (Method) The PI3Kγ inhibitory activity of a compound was evaluated using PI3-kinase HTRF™ assay (Millipore) according to the following procedure.
To each well of a testing plate was added 5 μL of a compound solution comprising 10% DMSO (200 μM as the concentration of the compound), 5 μL of 40 μM phosphatidylinositol (4,5)-bisphosphate/20 mM MgCl2/10 mM DTT, and 5 μL of 80 μg/mL PI-3 kinase γ/10 mM MgCl2/5 mM DTT, and then stood for 10 minutes.
Then, 5 μL of 40 μM ATP/10 mM MgCl2/5 mM DTT was added thereto. After reacting for 30 minutes at room temperature, 5 μL of a solution comprising EDTA and biotinylated phosphatidylinositol (3,4,5)-triphosphate was added to quench the reaction.
5 μL of a detection reagent comprising a europium-labeled anti-GST antibody, the GST-tagged PH domain, and allophycocyanin-labeled streptavidin was added thereto. After 18 hours, HTRF (excitation wavelength: 330 nm, measuring wavelengths: 620 nm and 665 nm) was measured.
A value of dividing an amount of fluorescence obtained at the measuring wavelength 665 nm by an amount of fluorescence obtained at 620 nm was defined as an HTRF ratio. The HTRF ratio in the absence of a compound was defined as 100% activity, and the HTRF ratio in the absence of PI-3 kinase γ was defined as 0% activity to calculate an inhibition ratio.

Solubility test = format: physicochemical; details: 25 °C, fassgf or other biorelevant, kinetic from dmso stock, artificial intestinal juice pH 6.8, 1% DMSO, 25 degrees Celsius
Experimental: 10 mM compound solution was prepared using DMSO, and then 6 μL of the compound solution was added to 594 μL of artificial intestinal juice in pH 6.8 (to 250 mL of 0.2 mol/L potassium dihydrogen phosphate reagent solution was added 118 mL of 0.2 mol/L NaOH reagent solution and water to provide a final volume of 1000 mL). After standing at 25 degrees Celsius for 16 hours, the mixed solution was filtrated with suction. The filtrate was diluted twice with methanol/water (1/1), and then a concentration in the filtration was measured with HPLC or LC/MS/MS by the absolute calibration method.

[1] = Metabolic stability test, pooled human liver microsome; format: in vitro ADME; details: human liver microsome 0.5 mg protein/mL, NADPH, 37 degrees Celsius, 30 minutes
Experimental: After a subject compound was reacted for a certain time using a pooled human liver microsome commercially available, a reacted sample and an unreacted sample are compared to calculate a survival ratio, and then the degree of metabolism in the liver was evaluated.
0.2 mL of a buffer solution (50 mmol/L of Tris-HCl in pH 7.4, 150 mmol/L of potassium chloride, and 10 mmol/L of magnesium chloride) containing a human liver microsome of 0.5 mg protein/mL was reacted in the presence of 1 mmol/L NADPH at 37 degrees Celsius for 0 or 30 minutes (oxidative reaction). After reacting, 50 μL of the reaction solution was added to 100 μL of a solution of methanol/acetonitrile (1/1(v/v)), mixed, and then centrifuged at 3000 rpm for 15 minutes. A test compound in the supernatant was quantitated with LC/MS/MS. An amount of the compound remained at a reaction time of 0 minute was defined as 100%, and, based on that, an amount of the test compound remained after the reaction was calculated.

[2] = target: T1, human ether-a-go-go related gene (hERG) channel (Homo sapiens, UniProt Q12809); test: hERG test, whole-cell patch-clamp in HEK293 cells; format: cell-based; details: HEK293 cells expressing hERG; concentration not given
T1 construct: expressed in transfected cells; host or cells: HEK293
T1 sequence (Q12809 whole entry): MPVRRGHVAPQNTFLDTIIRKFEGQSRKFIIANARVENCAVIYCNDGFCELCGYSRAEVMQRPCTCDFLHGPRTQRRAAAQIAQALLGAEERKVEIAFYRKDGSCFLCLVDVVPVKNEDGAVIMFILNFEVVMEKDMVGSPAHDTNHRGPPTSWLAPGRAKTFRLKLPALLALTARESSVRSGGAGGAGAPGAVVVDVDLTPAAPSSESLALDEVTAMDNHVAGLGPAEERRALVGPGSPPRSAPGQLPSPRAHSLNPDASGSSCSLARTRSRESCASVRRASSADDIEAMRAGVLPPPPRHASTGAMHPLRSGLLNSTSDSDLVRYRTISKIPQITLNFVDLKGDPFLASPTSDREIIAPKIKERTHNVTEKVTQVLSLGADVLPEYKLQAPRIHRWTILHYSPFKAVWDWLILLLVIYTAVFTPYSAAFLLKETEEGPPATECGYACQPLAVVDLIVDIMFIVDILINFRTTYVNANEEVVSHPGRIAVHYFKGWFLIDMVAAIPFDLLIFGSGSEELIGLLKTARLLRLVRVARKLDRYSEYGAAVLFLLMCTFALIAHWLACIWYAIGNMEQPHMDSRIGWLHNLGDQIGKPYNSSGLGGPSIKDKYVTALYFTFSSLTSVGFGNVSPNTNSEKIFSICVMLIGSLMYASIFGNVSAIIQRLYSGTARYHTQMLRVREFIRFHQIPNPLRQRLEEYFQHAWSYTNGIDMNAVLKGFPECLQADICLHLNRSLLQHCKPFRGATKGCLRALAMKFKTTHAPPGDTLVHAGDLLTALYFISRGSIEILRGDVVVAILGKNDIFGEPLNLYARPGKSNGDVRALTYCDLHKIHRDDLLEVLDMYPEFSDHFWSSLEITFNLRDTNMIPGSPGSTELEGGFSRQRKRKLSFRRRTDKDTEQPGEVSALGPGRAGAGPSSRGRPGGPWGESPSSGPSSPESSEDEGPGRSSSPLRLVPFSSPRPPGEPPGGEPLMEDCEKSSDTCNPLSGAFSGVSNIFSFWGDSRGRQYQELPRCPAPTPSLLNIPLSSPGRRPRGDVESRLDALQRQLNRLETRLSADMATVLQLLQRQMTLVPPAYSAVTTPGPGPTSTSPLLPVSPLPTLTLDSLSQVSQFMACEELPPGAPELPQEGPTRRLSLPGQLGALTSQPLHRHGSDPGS
Text: For the purpose of a risk evaluation of QT interval extension of electrocardiogram, using the HEK293 cell that was made express human ether-a-go-go related gene (hERG) channel, the activity on delayed rectification K^+ current (IKr) playing an important role in a cardiac ventricle repolarization process was examined.
Using an automatic patch-clamp system (PatchXpress 7000A, Axon Instruments Inc.), by a whole-cell patch-clamp method, after the cell was maintained at a membrane potential of −80 mV, IKr induced on giving depolarizing stimulation of +50 mV for 2 seconds and further repolarizing stimulation of −50 mV for 2 seconds was recorded. After generated current became stable, extracellular fluid (NaCl: 137 mmol/L, KCl: 4 mmol/L, CaCl2.2H2O: 1.8 mmol/L, MgCl2.6H2O: 1 mmol/L, glucose: 10 mmol/L, HEPES (4-(2-hydroxyethyl)-1-piperazineethanesulfonic acid): 10 mmol/L, pH=7.4) dissolving a test substance at an intended concentration was applied to the cell for 10 minutes under room temperature condition. From the IKr obtained, using an analysis soft (DataXpress ver. 1, Molecular Devices Corporation), a current value in a membrane potential maintained was used as a standard, and the absolute value of the maximum tail current was measured. Moreover, an inhibition ratio for the maximum tail current prior to the application of the test substance was calculated, and then compared with a group of media-application (0.1% dimethylsulfoxide solution) to evaluate influence of the test substance on IKr.

Sequence of PI-3 kinase γ (P48736 whole entry): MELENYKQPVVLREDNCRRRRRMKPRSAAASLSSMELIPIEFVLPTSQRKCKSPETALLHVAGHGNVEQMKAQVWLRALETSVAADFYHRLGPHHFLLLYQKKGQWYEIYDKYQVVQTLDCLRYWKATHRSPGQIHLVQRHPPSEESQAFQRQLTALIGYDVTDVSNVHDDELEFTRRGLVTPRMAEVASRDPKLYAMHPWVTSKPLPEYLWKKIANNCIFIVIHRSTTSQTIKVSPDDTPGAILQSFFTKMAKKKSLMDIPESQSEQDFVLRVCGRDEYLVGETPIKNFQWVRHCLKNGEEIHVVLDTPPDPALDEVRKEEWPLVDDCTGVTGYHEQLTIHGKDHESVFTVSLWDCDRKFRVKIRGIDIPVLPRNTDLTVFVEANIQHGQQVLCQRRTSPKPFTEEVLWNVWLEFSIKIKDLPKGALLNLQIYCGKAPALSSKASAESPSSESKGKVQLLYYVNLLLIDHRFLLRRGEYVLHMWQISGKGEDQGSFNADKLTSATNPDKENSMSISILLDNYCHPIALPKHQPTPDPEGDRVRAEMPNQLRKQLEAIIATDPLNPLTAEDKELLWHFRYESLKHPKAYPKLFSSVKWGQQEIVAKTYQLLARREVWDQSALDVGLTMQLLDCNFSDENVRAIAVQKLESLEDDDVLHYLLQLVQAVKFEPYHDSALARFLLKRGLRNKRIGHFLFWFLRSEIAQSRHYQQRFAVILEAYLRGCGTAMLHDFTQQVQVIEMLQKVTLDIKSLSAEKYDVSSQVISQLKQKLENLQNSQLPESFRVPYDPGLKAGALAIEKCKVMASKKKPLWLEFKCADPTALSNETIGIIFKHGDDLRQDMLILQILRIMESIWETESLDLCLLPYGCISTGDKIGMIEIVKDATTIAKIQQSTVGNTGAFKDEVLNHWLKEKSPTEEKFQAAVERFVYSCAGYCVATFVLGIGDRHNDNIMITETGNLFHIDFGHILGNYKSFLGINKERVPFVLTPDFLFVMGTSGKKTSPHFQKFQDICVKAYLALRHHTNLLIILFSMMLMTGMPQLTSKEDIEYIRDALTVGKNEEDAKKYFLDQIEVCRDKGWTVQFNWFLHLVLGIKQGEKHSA

| SMILES | inhibition at 50 µM (PI-3 kinase γ) [%] | solubility at 16 h (Solubility test) [µM] | Amount of the test compound remained after the reaction [1] [%] | Inhibition ratio for the maximum tail current (IKr) [2] [%] |
| --- | --- | --- | --- | --- |
| CNC(=O)Nc1cn2nc(-c3cccc(C(=O)O)c3)ccc2n1 [Compound I-28] | 89 | > 50 | 98.6 |  |
| CNC(=O)Nc1cn2nc(-c3cccc(C(N)=O)c3)ccc2n1 [Compound I-29] | 84 |  | 98.8 |  |
| CNC(=O)Nc1cn2nc(-c3cccc(S(C)(=O)=O)c3)ccc2n1 [Compound I-75] | 84 | > 50 |  |  |
| COc1cccc(-c2ccc3nc(NC(=O)Nc4ccccc4)cn3n2)c1 [Compound I-118] | 64 |  | 95.9 |  |
| CNC(=O)Nc1cn2nc(-c3cccc(CCCO)c3)ccc2n1 [Compound I-136] | 79 | > 50 |  |  |
| CNC(=O)Nc1cn2nc(-c3cccc(C(=O)N4CCCC4)c3)ccc2n1 [Compound I-137] | 81 |  |  | 8.4 |
| CNC(=O)Nc1cn2nc(-c3cccc(N(C)C)c3)ccc2n1 [Compound I-143] | 102 |  |  | 7.8 |
| COc1cccc(-c2ccc3nc(NC(=O)c4ccccc4Cl)cn3n2)c1 [Compound I-163] | 58 |  | 98.1 |  |
| CCC(C)C(=O)Nc1cn2nc(-c3cccc(OC)c3)ccc2n1 (stereo not drawn) [Compound I-182] | 98 |  |  | 9.3 |
| CCOC(=O)c1nc[nH]c1C(=O)Nc1cn2nc(-c3cccc(OC)c3)ccc2n1 [Compound I-208] |  |  |  | 0.5 |
| COc1cccc(-c2ccc3nc(NC(=O)CCCn4cncn4)cn3n2)c1 [Compound I-210] | 85 |  | 97 |  |
| COc1cccc(-c2ccc3nc(NC(=O)NCC(=O)OC(C)(C)C)cn3n2)c1 [Compound I-248] | 71 |  |  | 6.7 |
| COc1cccc(-c2ccc3nc(NC(=O)NCCO)cn3n2)c1 [Compound I-270] | 82 | > 50 |  |  |
| CNC(=O)Nc1cn2nc(C(=O)c3ccccc3)ccc2n1 [Compound I-280] | 92 |  |  | 5.8 |
| CNC(=O)Nc1cn2nc(Sc3cccc(OC)c3)ccc2n1 [Compound I-281] | 78 |  |  |  |
| CNC(=O)Nc1cn2nc(Cc3cccc(OC)c3)ccc2n1 [Compound I-282] | 78 |  |  |  |
| COc1cccc(-c2ccc3nc(Nc4cccc(C(C)=O)c4)cn3n2)c1 [Compound I-283] | 86 |  |  |  |
| COc1cccc(-c2ccc3nc(Nc4cccc(CO)c4)cn3n2)c1 [Compound I-284] | 111 |  |  |  |
| COC(=O)c1cccc(Nc2cn3nc(-c4cccc(OC)c4)ccc3n2)c1 [Compound I-285] | 96 |  |  |  |
| COc1cccc(-c2ccc3nc(Nc4cccc([N+](=O)[O-])c4)cn3n2)c1 [Compound I-286] | 87 |  |  |  |
| COc1ccc(Nc2cn3nc(-c4cccc(OC)c4)ccc3n2)cc1 [Compound I-287] | 101 |  |  |  |
| COc1cccc(-c2ccc3nc(Nc4ccc(OCCO)cc4)cn3n2)c1 [Compound I-288] | 107 |  |  |  |
| COc1cccc(-c2ccc3nc(Nc4ccc(CO)cn4)cn3n2)c1 [Compound I-289] | 127 |  |  |  |
| COc1cccc(-c2ccc3nc(Nc4cccc(O)n4)cn3n2)c1 [Compound I-290] | 92 |  |  |  |
| COc1cccc(-c2ccc3nc(NC(C)=O)cn3n2)c1 [Compound I-291] | 74 |  |  |  |
